Data from patent publication US20100260791A1, “CHLAMYDIA ANTIGENS” (President and Fellows of Harvard, priority 2007, published 2010).

Tests used:
[1] = test system: C. trachomatis-specific CD8^+ murine T cells; experiment: IFN-γ ELISA of C. trachomatis-specific CD8+ murine T cells stimulated with peptide-pulsed macrophages; format: cell-based, mouse; conditions: CT242 and CT812 peptides (CD8+ Ag); for IFN-γ Produced −fold: fold-increase of IFN-γ production compared to untreated T-lymphocytes (footnote); for IFN-γ Produced ng: mean (± standard deviation) of duplicate samples
From the text: (§1) A library of cells or viruses containing polynucleotides encoding C. trachomatis polypeptides, polypeptide fragments, or fusion proteins may be screened to determine which of the polypeptides, polypeptide fragments, or fusion proteins encoded by the polynucleotides are immunogenic. This may be accomplished by contacting each member of the library with a second cell (e.g., a macrophage or antigen presenting cell) capable of endocytosing the cell of the C. trachomatis library, and displaying portions of the expressed polypeptide of the library on the surface of the second cell (see, e.g., U.S. Pat. No. 6,008,415). The second cell is then contacted with a C. trachomatis-specific T cell (e.g., a C. trachomatis-specific CD4^+ or CD8^+ T cell) from an organism previously infected with C. trachomatis. The second cell may also be fixed (e.g., using paraformaldehyde) prior to contacting with a C. trachomatis-specific T cell. A C. trachomatis-specific T cell capable of binding a presented portion of the C. trachomatis protein, will result in secretion of cytokines. Cytokine secretion (e.g., secretion of IFN-γ, IL-2, or TNF) may be assayed for as known in the art, for example, using an ELISA assay.
(§2) In particular, murine H2^b bone marrow-derived macrophages (BMMs) were seeded at a density of 1×10^5 cells/well in 96-well plates. Fourteen to sixteen hours later, an aliquot of a frozen C. trachomatis library was thawed. The media was aspirated from the BMMs and replaced with a library aliquot and 60 μL of fresh RP-10 media. After 1 hour at 37° C., the BMMs were washed with PBS, 100 μL of RP-10 media added, and the cells incubated an additional hour at 37° C. The BMMs were then fixed with 1% paraformaldehyde for 15 minutes and washed extensively with PBS. […] T cells (either C. trachomatis-specific CD4^+ or CD8^+ murine T cells; 1×10^5) were added to each well in 200 μL of RP-10 media. Plates were incubated for 18-24 hours at 37° C. and the amount of IFN-γ in the supernatant of each well determined through the use of an IFN-γ ELISA assay (Endogen).
(§3) Another way to identify an antigenic peptide is to pulse the polypeptide, polypeptide fragment, or fusion protein onto macrophages and screen for their ability to activate C. trachomatis-specific CD4^+ or CD8^+ murine T cells (as described above). Peptides used in such assays can be synthesized using methods known in the art. A polypeptide, polypeptide fragment, or fusion protein that is capable of activating the C. trachomatis-specific CD4^+ or CD8^+ murine T cells is deemed immunogenic.
Pools of activated CD8^+ murine T cells for use in the identification of immunogenic C. trachomatis polypeptides, polypeptide fragments, and fusion proteins may be obtained using methods known in the art. Typically, in screening for antigens to pathogenic organisms, CD8^+ T cells are prepared from a mammal previously infected with the pathogenic organism. This preparation contains CD8^+ T cells specific for antigens from the pathogen.
C. trachomatis-specific CD8^+ T cells were harvested from mice as follows. A C57BL/6 mouse was injected intraperitoneally with 10^7 infection-forming units of C. trachomatis. Fourteen days later the mouse was euthanized and the spleen was harvested. The spleen was mashed through a 70 μm screen to create a single cell solution of splenocytes. The CD8^+ T cells were isolated from the splenocytes using anti-CD8 antibodies bound to MACS™ magnetic beads and separation protocols standard in the art (see, for e.g., MACS™ technology available from Miltenyi Biotec Inc., Auburn, Calif.). The isolated CD8^+ cells were added to macrophages of the same haplotype (H2^b), which were infected with C. trachomatis 18 hours prior in a 24-well dish. Irradiated splenocytes from a naïve mouse (C57BL/6) were added as feeder cells in media containing IL-2. The cells were incubated for 10 days during which the C. trachomatis-specific CD8^+ T cells were stimulated by the infected macrophages and replicated. […]

[2] = test system: C. trachomatis-specific CD4^+ murine T cells; experiment: IFN-γ ELISA of C. trachomatis-specific CD4+ murine T cells stimulated with peptide-pulsed macrophages; format: cell-based, mouse; conditions: CT144 peptides (CD4+ Ag); for IFN-γ Produced −fold: fold-increase of IFN-γ production compared to untreated T-lymphocytes (footnote); for IFN-γ Produced ng: mean (± standard deviation) of duplicate samples
From the text: as §1, §2, §3
Activated CD4^+ murine T cells for use in the identification of immunogenic C. trachomatis polypeptides, polypeptide fragments, and fusion proteins may be obtained using methods known in the art. Splenocytes from mice were isolated 21 days after infection with C. trachomatis serovar L2 and cultured with irradiated (2,000 rad) bone marrow-derived dendritic cells, UV-inactivated C. trachomatis serovar L2, and naïve syngeneic splenocytes in RP-10 (RPMI medium 1640 supplemented with 10% fetal calf serum, L-glutamine, HEPES, 50 μM 2-β-mercaptoethanol, 50 units/ml penicillin, and 50 μg/ml streptomycin) with a-methyl mannoside and 5% supernatant from Con A-stimulated rat spleen cells. CD8^+ T cells were depleted from the culture by using Dynabeads Mouse CD8 (Invitrogen, Carlsbad, Calif.). The CD4^+ T cells were restimulated every 7 days with C. trachomatis-pulsed bone marrow-derived dendritic cells. Once a C. trachomatis-specific CD4^+ cell line was established, a CD4^+ T cell clone was isolated by limiting dilution.

Row | Sequence | IFN-γ Produced −fold [1] | IFN-γ Produced ng [1] | IFN-γ Produced −fold [2] [fold] | IFN-γ Produced ng [2]
1 | FSVTNPVVF (listed as Chlamydia trachomatis) [amino acids 103-111 of the CT812 polypeptide] | 65 fold | 2.6 (±0.3) ng |  | 
2 | NVTQDLTSSTAKLECTQDLI [CT144 peptide tested with CD4+ T cells] |  |  | 35 | 1.4 (±0.3) ng
3 | AQGKLIVTNPKSDISFGGRV (listed as Chlamydia trachomatis) [amino acids 67-86 of the CT144 polypeptide] |  |  | 925 | 37.0 (±1.8) ng
4 | SQAEGQYRL [CT812 peptide tested with CD8+ T cells] | 0.8 fold | 0.03 (±0.3) ng |  | 
5 | AALYSTEDL [CT812 peptide tested with CD8+ T cells] | 0.5 fold | 0.02 (±0.02) ng |  | 
6 | LEFASCSSL [CT812 peptide tested with CD8+ T cells] | 1.5 fold | 0.06 (±0.01) ng |  | 
7 | FQEKDADTL [CT812 peptide tested with CD8+ T cells] | 2.0 fold | 0.09 (±0.03) ng |  | 
8 | KSDISFGGRVNLADNTVNYS (listed as Chlamydia trachomatis) [amino acids 77-96 of the CT144 polypeptide] |  |  | 40 | 1.6 (±0.4) ng
9 | YQILNQSNL (listed as Chlamydia trachomatis) [amino acids 109-117 of the CT242 polypeptide] | >5,750 fold | >230 ng |  | 
10 | SNLKRMQKI [CT242 peptide tested with CD8+ T cells] | 10 fold | 0.40 (±0.07) ng |  | 
11 | AKLECTQDLIAQGKLIVTNP [CT144 peptide tested with CD4+ T cells] |  |  | 35 | 1.4 (±0.3) ng
12 | FTSSNLDSP [CT812 peptide tested with CD8+ T cells] | 1.0 fold | 0.04 (±0.01) ng |  | 
13 | QSVNELVYV [CT812 peptide tested with CD8+ T cells] | 0.3 fold | 0.01 (±0.01) ng |  | 
14 | GQSVNELVY [CT812 peptide tested with CD8+ T cells] | 0.8 fold | 0.03 (±0.02) ng |  | 
15 | LNQSNLKRM (listed as Chlamydia trachomatis) [amino acids 112-120 of the CT242 polypeptide] | 160 fold | 6.5 (±2.4) ng |  | 
